# Laboratory results taken from patent US20250333419A1, “BICYCLIC COMPOUNDS AS INHIBITORS OF WRN” (Incyte Corporation, priority 2023, published 2025).
# pIC50: −log10 of the molar value.
# Columns and labels:
# WRN [1] = target: T1, WRN (Homo sapiens, UniProt Q14191); assay: WRN Helicase activity assay (fluorescence DNA unwinding); type: biochemical; details: IC50, 1-hr pre-incubation with enzyme; geometric means of at least 2 independent replicates
# T1 construct: A His-tagged construct of WRN (AA S2-S1235) was produced and used for the ATPase assay; His; made in house; host or cells: Sf9 insect cells (baculovirus)
# T1 sequence (Q14191 2-1235): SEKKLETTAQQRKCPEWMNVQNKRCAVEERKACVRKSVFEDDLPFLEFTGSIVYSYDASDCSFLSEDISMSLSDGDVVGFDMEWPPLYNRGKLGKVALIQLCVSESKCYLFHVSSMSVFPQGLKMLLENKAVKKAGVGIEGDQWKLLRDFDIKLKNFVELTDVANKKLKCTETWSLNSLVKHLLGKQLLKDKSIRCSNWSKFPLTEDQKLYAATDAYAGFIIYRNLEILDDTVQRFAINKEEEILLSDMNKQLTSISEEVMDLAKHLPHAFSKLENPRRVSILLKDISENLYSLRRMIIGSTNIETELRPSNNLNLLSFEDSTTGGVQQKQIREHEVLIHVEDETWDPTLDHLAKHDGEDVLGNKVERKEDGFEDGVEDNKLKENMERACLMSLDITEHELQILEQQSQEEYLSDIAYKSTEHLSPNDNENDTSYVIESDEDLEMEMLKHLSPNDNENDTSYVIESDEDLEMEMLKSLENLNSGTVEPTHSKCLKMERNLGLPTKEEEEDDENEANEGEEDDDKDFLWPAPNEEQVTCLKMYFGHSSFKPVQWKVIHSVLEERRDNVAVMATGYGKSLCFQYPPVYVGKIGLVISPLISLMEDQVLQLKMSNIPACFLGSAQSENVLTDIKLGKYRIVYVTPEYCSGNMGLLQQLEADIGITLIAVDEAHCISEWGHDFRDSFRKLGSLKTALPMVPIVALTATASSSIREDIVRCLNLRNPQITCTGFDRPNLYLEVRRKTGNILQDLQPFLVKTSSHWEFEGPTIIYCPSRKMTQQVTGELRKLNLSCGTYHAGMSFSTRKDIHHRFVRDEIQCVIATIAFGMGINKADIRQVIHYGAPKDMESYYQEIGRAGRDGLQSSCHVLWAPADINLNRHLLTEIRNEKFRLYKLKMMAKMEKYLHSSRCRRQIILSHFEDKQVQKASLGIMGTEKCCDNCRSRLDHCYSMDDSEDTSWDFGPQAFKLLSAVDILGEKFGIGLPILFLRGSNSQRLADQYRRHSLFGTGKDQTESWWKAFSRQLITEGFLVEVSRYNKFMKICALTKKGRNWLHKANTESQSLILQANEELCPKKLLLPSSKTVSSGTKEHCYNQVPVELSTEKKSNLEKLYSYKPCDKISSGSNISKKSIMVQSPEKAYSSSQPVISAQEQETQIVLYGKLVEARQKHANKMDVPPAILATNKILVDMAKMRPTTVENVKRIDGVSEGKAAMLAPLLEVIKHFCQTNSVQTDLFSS
# Description: Compounds of the examples were tested for WRN helicase activity. DNA encoding the target protein, 6×HIS-TEV-WRN-517-945, was produced, cloned and transfected as detailed in Example D. To determine the inhibitory properties of the compounds, a 384 wells plate-based Helicase assay was set up to measure the extent of DNA unwinding (Helicase) activity of WRN. The WRN Helicase assay was designed to measure increase in fluorescence signal using a fluorescence based, donor-quencher paired forked dsDNA oligomer substrate (custom synthesis from Sigma-Aldrich) prepared by annealing equal amounts of oligo GPat-1 ([BHQ2][…]) and oligo GPat-2 ([…][TAM]). Continuous measurement of fluorescent signal was used to optimize the buffer conditions, concentration of enzyme (WRN), concentration of substrates (ATP & dsDNA), and the linearity of the Helicase reaction. All solutions were prepared in the following assay buffer: 50 mM Tris-HCl, pH-7.5, 2 mM MgCl2, 50 mM NaCl, 1 mM EGTA, 0.01% P-20, 0.05% BSA, and 2 mM DTT prepared with nuclease free water.
# A serial dilution (1:3 scheme) of the compounds was prepared in neat DMSO and 100 nL of the compounds was dispensed in the Greiner black low volume (Greiner #784076) 384 wells assay plate. An 1-hr pre-incubation of the compounds with enzyme was included. A His-tagged construct of WRN (AA S2-S1235) was produced and used for the ATPase assay. Maximum inhibition control wells were set up with the addition of only assay buffer, and no inhibition control wells were set up with neat DMSO without test compounds. The reaction was initiated by addition of 5 μL substrate mix (200 μM ultrapure ATP, and 50 nM dsDNA prepared in assay buffer) and incubated at 25° C. for 35 min. A typical Helicase reaction consists of 25 nM forked dsDNA, 100 μM ATP, and 1 nM WRN prepared in assay buffer. The WRN Helicase reaction was quenched by the addition of 5 μL ‘STOP’ solution containing 100 mM EDTA (final EDTA concentration 33.33 mM) prepared in assay buffer. The plates were read on BMG PHERAstar FSX using 540/590 module to measure an increase of fluorescence. Data analysis was carried out using the Genedata software following % of control normalization. Fitting parameters include dose response IC50, Hill slope (n), maximum inhibition (S∞), and minimum inhibition (S0). The reported IC50 values for compounds in this invention are the geometric means of at least 2 independent replicates.
# WRN [2] = target: T1, WRN; assay: WRN ATPase activity assay (ADP-Glo); type: biochemical; details: IC50, 1-hr pre-incubation with enzyme; geometric means of at least 2 independent replicates
# Description: Compounds of the Examples were tested for WRN ATPase activity. WRN ATPase activity catalyzes ATP hydrolysis to produce ADP and phosphate. DNA encoding the target protein, 6×HIS-TEV-WRN-517-945, was produced, cloned and transfected as detailed in Example D. The amount of ADP produced was measured using ADP-Glo™ Kinase Assay kit from Promega Corporation in a Greiner white regular volume 384 wells assay plate (Greiner #781075). Data was normalized to a standard curve generated using various ADP concentrations and the corresponding luminescent signal intensities at each concentration. The assay conditions were optimized for enzyme concentration (WRN), substrate concentrations (ATP & dsDNA), and the linearity of the ATPase reaction, in the following assay buffer: 50 mM Tris-HCl, pH-7.5, 2 mM MgCl2, 50 mM NaCl, 1 mM EGTA, 0.01% P-20, 0.05% BSA, and 2 mM DTT prepared with nuclease free water.
# A serial dilution (1:3 scheme) of the compounds were prepared in neat DMSO, with 100 nL of the compounds dispensed in the 384 wells assay plate. An 1-hr pre-incubation of the compounds with enzyme was included. A His-tagged construct of WRN (AA S2-S1235) was produced and used for the ATPase assay. Maximum inhibition control wells were set up with the addition of only assay buffer, and no inhibition control wells were set up with neat DMSO without test compounds. The reaction was initiated by addition of 5 μL substrate mix (200 μM ultrapure ATP, and 50 nM dsDNA prepared in assay buffer) and incubated at 25° C. for 35 min. A forked dsDNA oligomer substrate was prepared by annealing equal amounts of oligo GPat-1 ([BHQ2][…]) and oligo GPat-2 ([…][TAM]) and was used as dsDNA substrate for WRN ATPase assay. A typical ATPase reaction consists of 25 nM forked dsDNA, 100 μM ATP, and 1 nM WRN prepared in assay buffer. The WRN ATPase reaction was stopped by the addition of 5 μL of ADP-Glo Reagent from ADP-Glo™ Kinase Assay kit and incubated for 40 min to deplete the unreacted ATP. Afterwards, 5 μL of Kinase Detection Reagent from the ADP-Glo™ Kinase Assay kit was added and incubated for 1 hr for the development of luminescence signal.
# Luminesce signals were measured on BMG PHERAstar FSX using luminescence protocol. Data analysis was carried out using Genedata software following % of control normalization. Fitting parameters include dose response IC50, Hill slope (n), maximum inhibition (S∞), and minimum inhibition (S0). The reported IC50 values for compounds in this invention are the geometric means of at least 2 independent replicates.
Compound,pIC50 (WRN [1]),pIC50 (WRN [2])
"C=CC(=O)Nc1ccccc1-c1c(CC)n(CC(=O)Nc2ccc(C(F)(F)F)cc2Cl)c2nc(C3=CCOCC3)nn2c1=O [Example 16, N-(2-(4-(2-((2-Chloro-4-(trifluoromethyl)phenyl)amino)-2-oxoethyl)-2-(3,6-dihydro-2H-pyran-4-yl)-5-ethyl-7-oxo-4,7-dihydro-[1,2,4]triazolo[1,5-a]pyrimidin-6-yl)phenyl)acrylamide]",> 7.00,> 7.00
"C=CC(=O)Nc1cc(C)ccc1-c1c(CC)n(CC(=O)Nc2ccc(C(F)(F)F)cc2)c2nc(C3=CCOCC3)nn2c1=O [Example 8, N-(2-(2-(3,6-Dihydro-2H-pyran-4-yl)-5-ethyl-7-oxo-4-(2-oxo-2-((4-(trifluoromethyl)phenyl)amino)ethyl)-4,7-dihydro-[1,2,4]triazolo[1,5-a]pyrimidin-6-yl)-5-methylphenyl)acryl amide]",> 7.00,> 7.00
"C=CC(=O)N1CCCC=C1c1c(CC)n(CC(=O)Nc2ccc(C(F)(F)F)cc2)c2nc(C3=CCOCC3)nn2c1=O [Example 14, 2-(6-(1-Acryloyl-1,4,5,6-tetrahydropyridin-2-yl)-2-(3,6-dihydro-2H-pyran-4-yl)-5-ethyl-7-oxo-[1,2,4]triazolo[1,5-a]pyrimidin-4(7H)-yl)-N-(4-(trifluoromethyl)phenyl)acetamide]",> 7.00,> 7.00
"C=CC(=O)N(C)c1ccccc1-c1c(CC)n(CC(=O)Nc2ccc(C(F)(F)F)cc2)c2nc(C3=CCOCC3)nn2c1=O [Example 6, N-(2-(2-(3,6-Dihydro-2H-pyran-4-yl)-5-ethyl-7-oxo-4-(2-oxo-2-((4-(trifluoromethyl)phenyl)amino)ethyl)-4,7-dihydro-[1,2,4]triazolo[1,5-a]pyrimidin-6-yl)phenyl)-N-methylacrylamide]",6.30 to 7.00,> 7.00
"C=CC(=O)Nc1cc(C(F)(F)F)ccc1-c1c(CC)n(CC(=O)Nc2ccc(C(F)(F)F)cc2)c2nc(C3=CCOCC3)nn2c1=O [Example 12, N-(2-(2-(3,6-Dihydro-2H-pyran-4-yl)-5-ethyl-7-oxo-4-(2-oxo-2-((4-(trifluoromethyl)phenyl)amino)ethyl)-4,7-dihydro-[1,2,4]triazolo[1,5-a]pyrimidin-6-yl)-5-(trifluoromethyl)phenyl)acrylamide]",> 7.00,> 7.00
"C=CC(=O)Nc1ccc(Cl)cc1-c1c(CC)n(CC(=O)Nc2ccc(C(F)(F)F)cc2)c2nc(C3=CCOCC3)nn2c1=O [Example 11, N-(4-Chloro-2-(2-(3,6-dihydro-2H-pyran-4-yl)-5-ethyl-7-oxo-4-(2-oxo-2-((4-(trifluoromethyl)phenyl)amino)ethyl)-4,7-dihydro-[1,2,4]triazolo[1,5-a]pyrimidin-6-yl)phenyl)acrylamide]",6.00 to 6.30,6.00 to 6.30
"C=CC(=O)N1CCc2cccc(-c3c(CC)n(CC(=O)Nc4ccc(C(F)(F)F)cc4)c4nc(C5=CCOCC5)nn4c3=O)c21 [Example 15, 2-(6-(1-Acryloylindolin-7-yl)-2-(3,6-dihydro-2H-pyran-4-yl)-5-ethyl-7-oxo-[1,2,4]triazolo[1,5-a]pyrimidin-4(7H)-yl)-N-(4-(trifluoromethyl)phenyl)acetamide]",> 7.00,> 7.00
"CCc1c(-c2ccccc2NC(=O)/C(C#N)=C\C(C)C)c(=O)n2nc(C3=CCOCC3)nc2n1CC(=O)Nc1ccc(C(F)(F)F)cc1 (single isomer, unassigned) [Example 4, (Z)-2-Cyano-N-(2-(2-(3,6-dihydro-2H-pyran-4-yl)-5-ethyl-7-oxo-4-(2-oxo-2-((4-(trifluoromethyl)phenyl)amino)ethyl)-4,7-dihydro-[1,2,4]triazolo[1,5-a]pyrimidin-6-yl)phenyl)-4-methylpent-2-enamide]",6.00 to 6.30,6.00 to 6.30
"C=CS(=O)(=O)Nc1ccccc1-c1c(CC)n(CC(=O)Nc2ccc(C(F)(F)F)cc2)c2nc(C3=CCOCC3)nn2c1=O [Example 2, 2-(2-(3,6-Dihydro-2H-pyran-4-yl)-5-ethyl-7-oxo-6-(2-(vinylsulfonamido)phenyl)-[1,2,4]triazolo[1,5-a]pyrimidin-4(7H)-yl)-N-(4-(trifluoromethyl)phenyl)acetamide]",> 7.00,> 7.00

# The next lines start with the values.
pIC50 (WRN [1]),pIC50 (WRN [2]),Compound
6.30 to 7.00,6.30 to 7.00,"C=CC(=O)Nc1ccccc1-c1c(CC)n(CC(=O)Nc2ccc(C(F)(F)F)cc2)c2nc(C3CCCCC3)nn2c1=O [Example 20, N-(2-(2-Cyclohexyl-5-ethyl-7-oxo-4-(2-oxo-2-((4-(trifluoromethyl)phenyl)amino)ethyl)-4,7-dihydro-[1,2,4]triazolo[1,5-a]pyrimidin-6-yl)phenyl)acrylamide]"
6.00 to 6.30,6.00 to 6.30,"C=CC(=O)Nc1ccc(C)cc1-c1c(CC)n(CC(=O)Nc2ccc(C(F)(F)F)cc2)c2nc(C3=CCOCC3)nn2c1=O [Example 9, N-(2-(2-(3,6-Dihydro-2H-pyran-4-yl)-5-ethyl-7-oxo-4-(2-oxo-2-((4-(trifluoromethyl)phenyl)amino)ethyl)-4,7-dihydro-[1,2,4]triazolo[1,5-a]pyrimidin-6-yl)-4-methylphenyl)acryl amide]"
> 7.00,> 7.00,"C=CC(=O)Nc1cc(F)ccc1-c1c(CC)n(CC(=O)Nc2ccc(C(F)(F)F)cc2)c2nc(C3=CCOCC3)nn2c1=O [Example 13, N-(2-(2-(3,6-Dihydro-2H-pyran-4-yl)-5-ethyl-7-oxo-4-(2-oxo-2-((4-(trifluoromethyl)phenyl)amino)ethyl)-4,7-dihydro-[1,2,4]triazolo[1,5-a]pyrimidin-6-yl)-5-fluorophenyl)acryl amide]"
6.00 to 6.30,6.30 to 7.00,"C=CC(=O)Nc1ccccc1-c1c(CC)n(CC(=O)Nc2ccc(C(F)(F)F)cc2)c2nc(C3CCOCC3)nn2c1=O [Example 23, N-(2-(5-Ethyl-7-oxo-4-(2-oxo-2-((4-(trifluoromethyl)phenyl)amino)ethyl)-2-(tetrahydro-2H-pyran-4-yl)-4,7-dihydro-[1,2,4]triazolo[1,5-a]pyrimidin-6-yl)phenyl)acrylamide]"
6.30 to 7.00,6.30 to 7.00,"C=CC(=O)Nc1ccccc1-c1c(CC)n(CC(=O)Nc2ccc(C(F)(F)F)cc2)c2nc(C3CCNCC3)nn2c1=O [Example 24, N-(2-(5-Ethyl-7-oxo-4-(2-oxo-2-((4-(trifluoromethyl)phenyl)amino)ethyl)-2-(piperidin-4-yl)-4,7-dihydro-[1,2,4]triazolo[1,5-a]pyrimidin-6-yl)phenyl)acrylamide]"
